Publication PMC11255338, “A deterministic, c-di-GMP-dependent program ensures the generation of phenotypically similar, symmetric daughter cells during cytokinesis” (Nature Communications, 2024)
Each block holds one molecule with its values, some of them ahead of it.

Columns and labels:
[1] = molecular target: T1, MalE-DmxA^WT (Myxococcus xanthus, UniProt Q1D632); test: diguanylate cyclase assay, pyrophosphate release (EnzChek); assay type: biochemical; conditions: 1 µM protein, 50 µM GTP; I-site mutant
T1 construct: gene MXAN_3705; residues 223-722 (two GAF domains + GGDEF; N-terminal transmembrane domain removed), N-terminal MalE (MBP) tag kept, pMAL-c6t, E. coli Rosetta DE3; dimer by SEC
T1 sequence (Q1D632 entry or part of it R603A): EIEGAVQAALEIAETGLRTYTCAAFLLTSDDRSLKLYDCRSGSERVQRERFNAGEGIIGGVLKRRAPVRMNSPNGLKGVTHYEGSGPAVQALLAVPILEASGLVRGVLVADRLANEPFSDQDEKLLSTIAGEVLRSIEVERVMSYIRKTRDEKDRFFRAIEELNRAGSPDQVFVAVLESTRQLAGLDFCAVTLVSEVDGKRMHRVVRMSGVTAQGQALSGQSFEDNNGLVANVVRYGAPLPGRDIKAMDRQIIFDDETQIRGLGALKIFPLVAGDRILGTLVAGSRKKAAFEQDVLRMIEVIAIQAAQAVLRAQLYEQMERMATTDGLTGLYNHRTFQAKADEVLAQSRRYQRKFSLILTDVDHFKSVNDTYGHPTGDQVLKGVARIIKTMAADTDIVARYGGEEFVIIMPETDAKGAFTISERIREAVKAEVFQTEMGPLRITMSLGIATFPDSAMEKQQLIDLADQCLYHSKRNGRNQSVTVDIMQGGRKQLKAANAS

[2] = molecular target: T2, MalE-DmxA^WT (Myxococcus xanthus, UniProt Q1D632); test: as above; assay type: biochemical; conditions: 1 µM protein, 50 µM GTP
T2 construct: gene MXAN_3705; residues 223-722 (two GAF domains + GGDEF; N-terminal transmembrane domain removed), N-terminal MalE (MBP) tag kept, pMAL-c6t, E. coli Rosetta DE3; dimer by SEC
T2 sequence (Q1D632 211-710): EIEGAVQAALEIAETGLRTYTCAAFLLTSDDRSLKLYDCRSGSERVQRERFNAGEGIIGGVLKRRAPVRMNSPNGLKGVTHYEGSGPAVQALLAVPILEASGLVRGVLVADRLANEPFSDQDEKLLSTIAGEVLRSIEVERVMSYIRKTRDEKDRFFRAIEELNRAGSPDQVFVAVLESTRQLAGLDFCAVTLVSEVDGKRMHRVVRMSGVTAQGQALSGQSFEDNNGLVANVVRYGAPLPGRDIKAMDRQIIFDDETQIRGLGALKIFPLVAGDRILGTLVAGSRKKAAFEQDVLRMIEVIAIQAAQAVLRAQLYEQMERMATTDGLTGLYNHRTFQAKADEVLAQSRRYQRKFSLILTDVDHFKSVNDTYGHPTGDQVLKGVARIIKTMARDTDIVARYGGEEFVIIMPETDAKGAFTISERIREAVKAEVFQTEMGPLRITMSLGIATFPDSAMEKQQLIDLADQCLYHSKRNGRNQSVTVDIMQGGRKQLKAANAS

[3] = molecular target: T2, MalE-DmxA^WT; test: diguanylate cyclase assay, pyrophosphate release (EnzChek), variable-slope inhibition fit; assay type: biochemical
[4] = molecular target: T3, MalE-DmxA^WT (Myxococcus xanthus, UniProt Q1D632, E614A); test: bio-layer interferometry, biotinylated c-di-GMP immobilised on streptavidin sensor; assay type: binding; conditions: labelled compound (biotinylated c-di-GMP, immobilised); 10 µM protein; active-site mutant
T3 construct: gene MXAN_3705; residues 223-722 (two GAF domains + GGDEF; N-terminal transmembrane domain removed), N-terminal MalE (MBP) tag kept, pMAL-c6t, E. coli Rosetta DE3; dimer by SEC

[5] = molecular target: MalE-DmxA^E626A (DmxA residues 223-722 with the catalytic-site substitution E626A) (Myxococcus xanthus DK1622); test: SEC; HiLoad 16/600 Superdex 200 pg; SEC buffer 50 mM Tris-HCl pH 7.2, 250 mM NaCl, 10 mM MgCl2, 5 mM DTT, 5% glycerol; column calibrated with Ribonuclease A, Carbonic Anhydrase, Conalbumin and Ferritin; oligomeric state estimated from the elution volume
[6] = molecular target: MalE-DmxA^GAF×2 (DmxA residues 223-547: only the two GAF domains) (Myxococcus xanthus DK1622); test: as above
[7] = molecular target: MalE-DmxA^R615A (DmxA residues 223-722 with the I-site substitution R615A) (Myxococcus xanthus DK1622); test: as above
[8] = molecular target: MalE-DmxA^WT (DmxA residues 223-722: two GAF domains and the GGDEF domain) (Myxococcus xanthus DK1622); test: as above

T3 sequence (Q1D632 entry or part of it E614A): as the sequence (Q1D632 entry or part of it R603A) above, with A393R, E404A counted along it

Ki [3]: ~15 µM
Molecule: Nc1nc2c(ncn2[C@@H]2O[C@@H]3COP(=O)(O)O[C@H]4[C@@H](O)[C@H](n5cnc6c(=O)[nH]c(N)nc65)O[C@@H]4COP(=O)(O)O[C@H]3[C@H]2O)c(=O)[nH]1 [c-di-GMP]
bio-layer interferometry, biotinylated c-di-GMP immobilised on streptavidin sens [4]: MalE-DmxA^WT and MalE-DmxA^E626A bound c-di-GMP

stoichiometry N [7]: 2
Molecule: MalE-DmxA^R615A (DmxA residues 223-722 with the I-site substitution R615A) (domain or fragment)

stoichiometry N [8]: 2
Molecule: MalE-DmxA^WT (DmxA residues 223-722: two GAF domains and the GGDEF domain) (domain or fragment)

The remaining lines, values behind:

Molecule: Nc1nc2c(ncn2[C@@H]2O[C@H](COP(=O)(O)OP(=O)(O)OP(=O)(O)O)[C@@H](O)[C@H]2O)c(=O)[nH]1 [GTP]
diguanylate cyclase assay, pyrophosphate release (EnzChek) [1]: MalE-DmxA^WT and MalE-DmxA^R615A had DGC activity
diguanylate cyclase assay, pyrophosphate release (EnzChek) [2]: MalE-DmxA^WT and MalE-DmxA^R615A had DGC activity

Molecule: MalE-DmxA^E626A (DmxA residues 223-722 with the catalytic-site substitution E626A) (domain or fragment)
stoichiometry N [5]: 2

Molecule: MalE-DmxA^GAF×2 (DmxA residues 223-547: only the two GAF domains) (domain or fragment)
stoichiometry N [6]: 2
